From US6482610B1, “Method for producing agents for treating tumor diseases and for immunosuppression” (Forschungszentrum Karlsruhe GmbH, priority 1998, dated 2002)
Read-outs that look alike come from different tables or passages of the source.

Columns and labels:
Kip1 mRNA = Kip1 mRNA by Northern blot in 5 L cells; format: cell-based, rat
5 L cells [1] = assay: Cell cycle distribution by flow cytometry in transfected 5 L cells; format: cell-based, rat
Excerpt: Genetic indications of a causal role for Kip1 induction in dioxin-induced cell cycle retardation were obtained by transiently expressing a Kip1 antisense RNA in order to inactivate Kip1. Coexpression of green fluorescent protein (GFP, Heim, A. B. et al., Nature 373, 663 (1997)) enabled flow cytometry to be used to detect efficiently transfected cells (FIG. 3A). […] When Kip1 antisense RNA was expressed together with GFP, the TCDD effect on cell cycle distribution was interrupted in the efficiently transfected subpopulation of cells (FIG. 3B, third row). In the non-transfected subpopulation from the same cell culture, TCDD retarded the progress of the cell cycle in the expected manner (FIG. 3B, last row). In this context, it is to be noted that the electroporation reduced sensitivity to dioxin such that the observed effects on the cell cycle were less pronounced than in non-transfected cells, for example 1.5-2-fold as compared with 3-4-fold in non-electroporated cells (Weiss, loc. cit.).
5 L cells were transiently cotransfected with expression vectors for a Kip1 antisence RNA and GFP (part B, lower panel) or with the empty expression vector and GFP (part B, upper panel). 32 h after the transfection, the cells were treated with 1 nM TCDD or 0.1% DMSO solvent, as the control, and harvested, for the analysis by flow cytometry 18 h later, using trypsin. (A) The GFP-expressing subpopulation of transfected cells (thick line) was identified by means of a high green fluorescence (GFP) as compared with untransfected cells (thin line). (B) Cell cycle profiles were determined by staining with H33258 and analysed individually for efficiently transfected (approx. 5%), green-fluorescing subpopulations (rows 1 and 3) and untransfected subpopulations (rows 2 and 4) in the presence of 1 nM TCDD (right-hand panels) or 0.1% DMSO solvent (left-hand panels).

thymocytes = assay: Thymocyte proliferation and cell cycle distribution in foetal thymus organ culture; format: cell-based, mice; details: for % in G2/S: 2 days of culture, mean ± S.D., 3 experiments
Excerpt: (§1) An important target for dioxin toxicity is the thymus, which suffers an AhR-dependent atrophy (Poland, A. et al., Annu. Rev. Pharmacol. Toxicol. 22, 517 (1982); Fernandez-Salguero, P. et al., Science 268, 722 (1995)). Foetal thymus organ culture (FTOC) provides a useful model for studying dioxin activities (Lai, Z. W. et al., Mol. Pharmacol. 52, 30 (1997), and the literature references which are cited therein). After only 2 days of FTOC, a 3-fold induction of Kip1 protein was found in thymocytes which had been prepared from TCDD-treated cultures as compared with cultures which had only been exposed to the solvent (FIG. 4A). This was accompanied by a decrease in the proliferation of the thymocytes, as shown by a reduced incorporation of ^3H-thymidine into the thymocyte DNA (75±7%) and a drop, from 32±3% down to 24±1%, in the number of cells in the S and G2 phases of the cell cycle (a representative example from 3 similar experiments is shown in FIG. 4B). While the proliferation rate in all the early thymocyte subpopulations was reduced independently of the status of CD4 or CD8 expression (Table 1), the effect was more strongly pronounced in the predominantly immature, double negative subpopulation and in a small CD4low/+/CD8-subpopulation.
(§2) Foetal thymus glands from C57B16 mice were explanted after 14.5 days of pregnancy and cultured for 2 days in the presence of 1 nM TCDD or 0.1% DMSO solvent prior to preparing thymocytes. p27Kip1 protein (A) was determined by Western blot in 10^5 thymocytes. Uniform loading of the gel was ensured by probing the blots once again with an Erk1 antibody (one of three representative examples is shown). The cell cycle distribution of the total lymphocyte population (B) was determined by means of flow cytometry following DNA staining with H33258 bisbenzimide dye.
Thymocytes from foetal thymus glands were collected after 2 days of culture in the presence or absence of TCDD and analysed for their cell cycle distribution. The values are mean values±S.D. from 3 independent experiments.

[2] = test system: p27Kip1 associated with cyclin E; assay: Immunocoprecipitation with anti-cyclin E antibody, Western blot of p27Kip1; format: cell-based, rat; details: 5 L cells, immunocoprecipitation analysis, FIG. 2D
Method: (§3) After it had been found by introductory experiments that the effect of dioxin on the cell cycle required gene expression which was continuous and induced, experiments were carried out to investigate the Ah receptor-dependent, cell cycle-regulating genes by characterizing biochemical changes in the course of the cell cycle (Lees, E., Curr. Opin. Cell Biol. 7, 773 (1995); Morgan, D. O., Nature 374, 131 (1995). The levels of cyclins D and E, which are involved in the G1-S transition in the cell cycle, as well as their associated cyclin-dependent kinases (cdks 2 and 4), were not reduced by dioxin treatment (see FIG. 2A). […]
(§4) Biochemical properties of G1-phase cyclin/cdk complexes were analysed using 30-60%-confluent, asynchronous cell cultures which, apart from those in section E, had been subjected to a 24-hour treatment with TCDD or 0.1% of the DMSO solvent. The quantities of G1-phase cyclins D1, D2, D3 and E, and also cdks 2 and 4(A) were determined by Western blot in extracts which had been prepared by lysis using a mild detergent (Matsushime, H. et al. Mol. Cell Biol. 14, 2066 (1994)). Cyclin E-dependent histone H1 kinase activity (B) was measured in an immune complex kinase assay (Matsushime, loc. cit.) following precipitation with an anti-cyclin E antibody (lanes 1 and 2) or a corresponding anti-AP-2 antibody as the negative control (lanes 3 and 4). […]

[3] = test system: cyclin E-associated histone H1 kinase; assay: Cyclin E-dependent histone H1 kinase activity, immune complex kinase assay; format: cell-based, rat; details: 5 L cells, 24-hour treatment, FIG. 2B
Method: as §3, §4

p27Kip1 [4] = assay: p27Kip1 protein level by Western blot in 5 L cells and BP8 derivatives; format: cell-based, rat
Method: After it had been found by introductory experiments that the effect of dioxin on the cell cycle required gene expression which was continuous and induced, experiments were carried out to investigate the Ah receptor-dependent, cell cycle-regulating genes by characterizing biochemical changes in the course of the cell cycle (Lees, E., Curr. Opin. Cell Biol. 7, 773 (1995); Morgan, D. O., Nature 374, 131 (1995). The levels of cyclins D and E, which are involved in the G1-S transition in the cell cycle, as well as their associated cyclin-dependent kinases (cdks 2 and 4), were not reduced by dioxin treatment (see FIG. 2A). The levels of cyclins D2 and D3 were even raised, presumably because the cells are frozen in a state which is per se associated with a high level of these cyclins. […] The expected accumulation of a slowly migrating form of cdk2, which is presumably not phosphorylated at Thr-160 (Polyak, loc. cit.), was found in the same precipitates (FIG. 2D). […]
as §4, with “4). The levels of p27Kip1 protein (C) were determined by Western blot in whole-cell extracts prepared from TCDD-treated cultures of AhR-expressing 5 L wild-type cells, their AhR-deficient BP8AhR-derivatives and BP8 cells which were expressing AhR ectopically (BP8AhR+) (Weiss, loc. cit.).” for “4).”

[5] = test system: cyclins D1, D2, D3 and E, cdks 2 and 4; assay: Western blot of G1-phase cyclins and cdks in 5 L cells; format: cell-based, rat; details: 24-hour treatment, FIG. 2A
Method: as §3, §4

p27Kip1 [6] = assay: p27Kip1 protein by Western blot in foetal thymus organ culture thymocytes; format: cell-based, mice; details: 2 days of FTOC, 1 nM, compared with solvent cultures
Excerpt: as §1, with “While the proliferation rate in all the early thymocyte subpopulations was reduced independently of the status of CD4 or CD8 expression (Table 1), the effect was more strongly pronounced in the predominantly immature, double negative subpopulation and in a small CD4low/+/CD8-subpopulation.” left out
as §2, with “Uniform loading of the gel was ensured by probing the blots once again with an Erk1 antibody (one of three representative examples is shown).” left out

5 L cells [7] = details: non-electroporated cells (Weiss, loc. cit.); cited from earlier work
5 L cells [8] = assay: Cell cycle progress by Rb protein phosphorylation, Western blot, synchronised 5 L cells; format: cell-based, rat; details: 1 nM, 2 h before analysis, 8 h after serum stimulation, FIG. 1
Method: 5 L cells were frozen in their growth by being fasted in serum-free medium for 24 h and synchronously released from the block in the cell cycle by the addition of serum. The progress in the cell cycle was monitored by Western blot analysis, by determining the accumulation of phosphorylated Rb protein (upper arrow) in relation to hypophosphorylated Rb protein (lower arrow) 8 h after stimulating with the serum. 2 h before the analysis, the cells were treated with 1 nM TCDD, the transcription inhibitor actinomycin D (5 μg/ml) or both these compounds. The culture conditions have been described previously (Weiss, C. et al. Exp. Cell Res. 226, 154 (1996)), and extracts were prepared by lysing the cells in denaturing SDS sample buffer.

p18-Ink and p21-Cip1 = assay: Levels of other cdk inhibitors in 5 L cells; format: cell-based, rat
Method: After it had been found by introductory experiments that the effect of dioxin on the cell cycle required gene expression which was continuous and induced, experiments were carried out to investigate the Ah receptor-dependent, cell cycle-regulating genes by characterizing biochemical changes in the course of the cell cycle (Lees, E., Curr. Opin. Cell Biol. 7, 773 (1995); Morgan, D. O., Nature 374, 131 (1995). The levels of cyclins D and E, which are involved in the G1-S transition in the cell cycle, as well as their associated cyclin-dependent kinases (cdks 2 and 4), were not reduced by dioxin treatment (see FIG. 2A). The levels of cyclins D2 and D3 were even raised, presumably because the cells are frozen in a state which is per se associated with a high level of these cyclins. […] The expected accumulation of a slowly migrating form of cdk2, which is presumably not phosphorylated at Thr-160 (Polyak, loc. cit.), was found in the same precipitates (FIG. 2D). […] The rise in the level of the p27Kip1 protein was accompanied by a fourfold induction of Kip1 mRNA (FIG. 2E, lanes 1 and 2).

## C[C@@H]1C[C@@H]([C@H](O)CC2CC(=O)NC(=O)C2)C(=O)[C@@H](C)C1 [cycloheximide]
Kip1 mRNA; 30-minute pretreatment, 20 μg/ml, then 4-hour TCDD
  effect on TCDD induction of Kip1 mRNA: had no effect

## Clc1cc2c(cc1Cl)Oc1cc(Cl)c(Cl)cc1O2 [TCDD]
5 L cells [1]; GFP with empty expression vector, transfected and non-transfected cells, 1 nM, 18 h
  relative number of cells in S/G2: reduced
5 L cells [1]; efficiently transfected subpopulation expressing Kip1 antisense RNA with GFP, 1 nM
  TCDD effect on cell cycle distribution: interrupted
5 L cells [1]; electroporated cells
  observed effects on the cell cycle: 1.5-2 fold
5 L cells [1]; non-transfected subpopulation of the Kip1 antisense culture, 1 nM
  progress of the cell cycle: retarded
thymocytes; 2 days of FTOC, 1 nM
  incorporation of 3H-thymidine into the thymocyte DNA: 75±7%
thymocytes; CD4+/CD8+ thymocytes
  % in G2/S: 35 ± 10%
thymocytes; CD4+/CD8− thymocytes
  % in G2/S: 24 ± 4%
thymocytes; CD4−/CD8+ thymocytes
  % in G2/S: 32 ± 6%
thymocytes; CD4−/CD8− thymocytes
  % in G2/S: 18 ± 2%
thymocytes; total thymocyte population, 2 days of FTOC, 1 nM
  number of cells in the S and G2 phases of the cell cycle: 24±1%
[2]
  quantities of p27Kip1 associated with cyclin E: increased quantities
[3]
  cyclin E-associated histone H1 kinase activity: substantially reduced
Kip1 mRNA; 5 L cells, 4-hour exposure, FIG. 2E
  induction of Kip1 mRNA: fourfold
Kip1 mRNA; following interruption of transcription by actinomycin D
  breakdown of Kip1 mRNA: did not affect
p27Kip1 [4]; 5 L wild-type cells, exposure from 4 to 72 hours, FIG. 2C
  level of p27Kip1 by Western blot: raised in every case
p27Kip1 [4]; AhR-poor subclone of 5 L cells (BP8-AhR−)
  upregulation of p27Kip1: not possible to observe dioxin-dependent upregulation
p27Kip1 [4]; BP8 subclone with ectopic expression of the AhR (BP8-AhR+)
  induction of p27Kip1: induction was restored
[5]
  levels of cyclins D2 and D3: even raised
  levels of cyclins D and E and associated cyclin-dependent kinases (cdks 2 and 4): not reduced
p27Kip1 [6]
  induction of Kip1 protein in thymocytes: 3 fold
5 L cells [7]
  observed effects on the cell cycle: 3-4 fold
5 L cells [8]
  progress of the cell cycle (phosphorylated versus hypophosphorylated Rb protein): transcription-dependent retardation
p18-Ink and p21-Cip1
  p18-Ink and p21-Cip1 levels: not noticeably altered
